# Reference: patent US6783541B2, “Methods for inhibiting or suppressing stenosis of arteriovenous access fistulas and grafts” (Miravant Medical Technologies, Inc., priority 2001, dated 2004)
# Tests used:
# [1] = test system: stenosis in a canine model of prosthetic AV access graft; test: PDT in a canine model of prosthetic AV access graft; assay type: in vivo, female mongrel dogs
# Description: The work described below was undertaken to evaluate the effects of application of an embodiment of the method of the present invention on the suppression of stenosis in a canine model of prosthetic AV access graft.
# Initial studies using light-treatment without MV6401 confirmed no effect on the stenosis. Bilateral femoral PTFE AV access grafts were implanted in four female mongrel dogs. MV6401 (2 mg/kg, IV) was given one hour prior to the operation, and PDT was administered using an endolumenal non-thermal balloon catheter light source immediately after AV access graft placement. The contralateral side received a sham balloon treatment without light activation. The animals were sacrificed four weeks after the treatment, at which time the grafts were harvested, sectioned and examined by histology. Venous anastomotic sites were graded by an individual blinded to the treatment parameters and graded on a categorical scale (0-5) of lesion progression. Thickness of the stenotic lesion was determined using computer morphometry.
# [2] = Preliminary uptake studies by HPLC and fluorescence microscopy
smiles,measurement,setting,value
C=Cc1c(C)c2[n]3c1=CC1=NC(=Cc4c(C)c5c([n]4[In]3[Cl])C(=C3N=C(C=2)[C@@H](C)[C@@H]3CCC(=O)OC)CC5=O)C(CC)=C1C [MV6401],graft fibrosis grade at venous anastomotic site (categorical scale 0-5),"[1]; MV6401 2 mg/kg IV 1 h before operation, endolumenal balloon light, 4 weeks after treatment, sham side without light 2.25±0.08, P=0.02",1.13±0.15
same,thickness of the stenotic lesions at the venous anastomosis,"[1]; MV6401 2 mg/kg IV plus light, 4 weeks after PDT, computer morphometry, sham side without light 1.51±0.11 mm, P=0.006",0.49±0.06 mm
same,long term detrimental effects,[1]; PDT dose sufficient to substantially deplete cell population in vessel wall,no detrimental long term effects noted
same,acellularity in the vessel wall,[1]; PDT dose used (MV6401 2 mg/kg IV plus light),substantial acellularity in the vessel wall
same,AV access graft patency,[1]; four weeks after treatment,patent and fully functioning
same,incorporation of drug into tissue,[2],incorporation into stenotic lesions and surrounding vessel wall
